Test system: antioxidant enzymes in TM4 cells
Test: Antioxidant enzymatic activity assays (SOD, CAT, GPx, GR, GST)
Format: cell-based, mouse
Method: The antioxidant enzymatic activities were performed spectrophotometrically, as previously described. Briefly, after 3 h of incubation with azoles, cells were washed in ice-cold PBS, resuspended in buffer containing 50 mM Tris–HCl (pH 7.4), 1% (v/v) Triton X-100, 1 mM EDTA, and then disrupted by three freeze-thawing cycles. After centrifugation (17,000 g, 10 min, 4 °C), the supernatants were collected for protein quantification and subsequently analysed.
The glutathione reductase (GR) activity was evaluated spectrophotometrically by measuring NADPH oxidation (340 nm at 25 °C). The reaction mix contained 50 mM potassium phosphate buffer (pH 7.0), 1 mM GSSG, 0.2 mM NADPH, 1 mM EDTA, and the adequate protein amount.
Total glutathione peroxidase (GPx) activity (se-dependent and se-independent) of each cell extract was assayed spectrophotometrically by following the NADPH oxidation (340 nm). The assay mixture contained 50 mM potassium phosphate buffer (pH 7.0), 1 mM GSH, 0.01 U/mL GSH reductase, 1 mM EDTA, 0.2 mM NADPH, 70 µM t-BHP, and the adequate amount of the protein extract. The glutathione transferase (GST) activity was evaluated by determining the GSH conjugation rate to 1-chloro-2,4- dinitrobenzene at 340 nm. The reaction mixture was prepared with 0.1 M potassium phosphate buffer (pH 6.5), 2 mM GSH, 1 mM 1-chloro-2,4-dinitrobenzene, and a determined amount of the supernatants.
The catalase (CAT) activity was evaluated, by monitoring at 240 nm its 10-millimolar decomposition. One unit was defined as 1 µmol of H2O2 reduced/min at 25 °C.
The superoxide dismutase (SOD) activity was determined using a colourimetric activity assay (ThermoFisher Scientific—Life Technologies Corp, Carlsband, CA, USA). The assay was conducted according to manufacturer’s instructions; briefly, it measures all types of SOD activity (including Cu/Zn, Mn, and FeSOD). Samples were resuspended in specific coloured diluent and added to a 96-well microplate. […] SOD-specific activity was expressed as U/mg protein, while the specific activity of all the other enzymes analysed was expressed as nmol/min/mg protein.

## CCCN(CCOc1c(Cl)cc(Cl)cc1Cl)C(=O)n1ccnc1 [PCZ, prochloraz]
3 h of exposure, vCTR = 0.46 ± 0.067
  SOD/(GPx + CAT) ratio: 0.0972 ± 0.019
3 h of incubation, vs controls
  GST activity: substantially reduced
3 h of incubation, vs vCTR
  GR/(GPx + GST) ratio: positive and significant shift
